Where a SMILES comes first, the peptide text is derived from it. Where no end group is shown, it is not given here. [ ]: non-standard residue; d: D form. pY = N[CH](Cc1ccc(OP(=O)(O)O)cc1)C(=O)O; pT = C[CH](OP(=O)(O)O)[CH](N)C(=O)O; pS = N[CH](COP(=O)(O)O)C(=O)O
T1: feline calcium-sensing receptor (CaSR) (feline (cat))
T1 chain: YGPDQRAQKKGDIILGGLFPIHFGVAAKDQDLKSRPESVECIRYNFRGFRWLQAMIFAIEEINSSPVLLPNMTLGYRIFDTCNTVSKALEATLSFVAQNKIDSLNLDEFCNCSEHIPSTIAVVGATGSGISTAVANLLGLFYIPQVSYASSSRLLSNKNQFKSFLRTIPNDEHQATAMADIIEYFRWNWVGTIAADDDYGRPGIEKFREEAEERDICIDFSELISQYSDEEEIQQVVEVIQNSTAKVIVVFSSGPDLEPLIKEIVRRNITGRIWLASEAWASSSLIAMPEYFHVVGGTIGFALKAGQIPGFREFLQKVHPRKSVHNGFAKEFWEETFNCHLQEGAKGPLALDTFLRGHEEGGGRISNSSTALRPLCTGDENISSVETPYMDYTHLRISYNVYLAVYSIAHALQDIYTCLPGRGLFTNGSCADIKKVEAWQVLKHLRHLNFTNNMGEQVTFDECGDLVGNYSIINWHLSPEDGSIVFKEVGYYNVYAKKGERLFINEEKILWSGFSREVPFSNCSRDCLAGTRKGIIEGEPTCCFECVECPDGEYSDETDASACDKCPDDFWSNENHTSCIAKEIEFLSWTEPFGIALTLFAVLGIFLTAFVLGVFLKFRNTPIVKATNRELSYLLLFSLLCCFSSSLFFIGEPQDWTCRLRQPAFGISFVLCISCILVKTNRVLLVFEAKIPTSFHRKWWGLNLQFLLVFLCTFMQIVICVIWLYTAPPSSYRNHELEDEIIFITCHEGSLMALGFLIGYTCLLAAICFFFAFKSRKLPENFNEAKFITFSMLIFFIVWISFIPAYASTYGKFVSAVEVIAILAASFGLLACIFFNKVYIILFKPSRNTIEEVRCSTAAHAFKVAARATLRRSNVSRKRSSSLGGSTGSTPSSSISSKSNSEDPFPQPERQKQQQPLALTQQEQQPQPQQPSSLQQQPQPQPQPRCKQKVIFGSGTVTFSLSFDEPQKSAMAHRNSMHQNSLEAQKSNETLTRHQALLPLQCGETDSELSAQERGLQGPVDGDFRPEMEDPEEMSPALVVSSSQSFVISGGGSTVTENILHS

B1: Asp-Val-Glu (peptide)
peptide: DVE

System: feline Kokumi taste receptor (f-CaSR)
Assay: feline Kokumi taste receptor assay (f-CaSR), agonistic activity of isolated samples
Assay type: cell-based
Settings: isolated samples from hydrolysate T648
Experimental: Aliquots of the isolated samples were tested for their agonistic activity in feline Kokumi taste receptor assays (f-CaSR).

f-CaSR activity (EC50) | EC50 | Molecule
Not active | – | 5-oxoproline-Lys-Glu-Pro [BC 02]
– | 2 mM | CC[C@H](C)[C@H](N)C(=O)NCC(=O)N[C@@H](COP(=O)(O)O)C(=O)N[C@@H](CCC(=O)O)C(=O)N[C@@H](COP(=O)(O)O)C(=O)N[C@H](C(=O)N[C@@H](CCC(=O)O)C(=O)N[C@@H](CC(=O)O)C(=O)N[C@@H](CCC(N)=O)C(=O)N[C@@H](C)C(=O)O)[C@@H](C)O [BC 08, Ile-Gly-pSer-Glu-pSer-Thr-Glu-Asp-Gln-Ala] (H-IG[pS]E[pS]TEDQA-OH; N-terminus and C-terminus assumed)
– | 3.16 mM | CC[C@H](C)[C@H](NC(=O)[C@@H](N)CCC(=O)O)C(=O)N[C@H](C(=O)N1CCC[C@H]1C(=O)N[C@@H](CC(N)=O)C(=O)N[C@@H](COP(=O)(O)O)C(=O)N[C@@H](C)C(=O)N[C@@H](CCC(=O)O)C(=O)N[C@@H](CCC(=O)O)C(=O)O)C(C)C [BC 09, Glu-Ile-Val-Pro-Asn-pSer-Ala-Glu-Glu] (H-EIVPN[pS]AEE-OH; N-terminus and C-terminus assumed)
– | 2 mM | CC[C@H](C)[C@H](NC(=O)[C@@H](N)CC(=O)O)C(=O)NCC(=O)N[C@@H](COP(=O)(O)O)C(=O)N[C@@H](CCC(=O)O)C(=O)N[C@@H](COP(=O)(O)O)C(=O)N[C@H](C(=O)N[C@@H](CCC(=O)O)C(=O)N[C@@H](CC(=O)O)C(=O)N[C@@H](CCC(N)=O)C(=O)N[C@@H](C)C(=O)O)[C@@H](C)O [BC 10, Asp-Ile-Gly-pSer-Glu-pSer-Thr-Glu-Asp-Gln-Ala] (H-DIG[pS]E[pS]TEDQA-OH; N-terminus and C-terminus assumed)

Molecule | f-CaSR activity (EC50) | EC50
CC(C)C(NC(=O)C(N)CC(=O)O)C(=O)NC(CCC(=O)O)C(=O)O (stereo not drawn) [BC 01, Asp-Val-Glu] (H-Asp-Val-Glu-OH; configuration not given here) | – | 6.32 mM
CC[C@H](C)[C@H](N)C(=O)NCC(=O)N[C@@H](COP(=O)(O)O)C(=O)N[C@@H](CCC(=O)O)C(=O)N[C@@H](COP(=O)(O)O)C(=O)N[C@H](C(=O)N[C@@H](CCC(=O)O)C(=O)N[C@@H](CC(=O)O)C(=O)N[C@@H](CCC(N)=O)C(=O)O)[C@@H](C)O [BC 06, Ile-Gly-pSer-Glu-pSer-Thr-Glu-Asp-Gln] (H-IG[pS]E[pS]TEDQ-OH; N-terminus and C-terminus assumed) | – | 2 mM

Target: feline CaSR (Felis catus, UniProt A0ABI7YY68)
Assay: HEK T-Rex/natClytin-fCaSR luminescence assay, activation of feline CaSR
Assay type: cell-based
Settings: not given
Experimental: The cells used for the assays were HEK293 derived HEK T-Rex/natClytin-fCaSR cells. For the assays, the cells were plated on […] culture plates with a clear bottom for reading the luminescence in the wells. The setup of the assay for standard assays on the FlexStation was as follows. The wells containing the cells had 20 ul of calcium-free Tyrode's buffer at the beginning of the assay. 20 ul of each ligand at a specified concentration was injected on the cells and the response of the cells was measured for 90 sec at 1.94 sec intervals. The resulting curves were analyzed and reduced using the software provided by Molecular Devices, SoftMax Pro (version 5.4.1).
Each peptide was assayed on two separate occasions at least, with four repetitions of each concentration applied to the cells. In parallel, the same tests were run on a mock cell line with a mock vector, in order to confirm the specificity of any signals measured.
The data obtained from the FlexStation was used to trace dose-response curves for each ligand. These graphs were plotted using GraphPad Prism 7.03 software with the [Agonist] vs. response—Variable slope (four parameters) plot. The same formula was used to calculate the EC50 value with the associated Standard Error. Each plot contains the mean data points with an SEM calculated by the software for each data point.
One of the concerns during the planning of these assays was that it was possible that some of these peptides could bind the divalent calcium cation and cause a non-specific response from the receptor. In order to ensure that the interaction between the receptor and the peptides was measured and not with calcium, the peptides were synthesized in guaranteed calcium-free conditions. Similarly, all the assays were performed using calcium-free reagents.

Molecule | EC50
CC(NC(=O)C(N)CC(=O)O)C(=O)NC(CCC(=O)O)C(=O)O (stereo not drawn) [Asp-Ala-Glu] (H-Asp-Ala-Glu-OH; configuration not given here) | 3.54 ± 0.05 mM
NC(CC(=O)O)C(=O)NC(CCC(=O)O)C(=O)NC(CCC(=O)O)C(=O)O (stereo not drawn) [Asp-Glu-Glu] (H-Asp-Glu-Glu-OH; configuration not given here) | 2.59 ± 0.09 mM
CC(C)C(NC(=O)C(N)CC(=O)O)C(=O)NC(CC(=O)O)C(=O)O (stereo not drawn) [Asp-Val-Asp] (H-Asp-Val-Asp-OH; configuration not given here) | 3.41 ± 0.05 mM
CC(C)C(NC(=O)C(N)CC(=O)O)C(=O)NC(CCC(=O)O)C(=O)O (stereo not drawn) [BC 01, Asp-Val-Glu] (H-Asp-Val-Glu-OH; configuration not given here) | 3.3 ± 0.15 mM
CC[C@H](C)[C@H](N)C(=O)NCC(=O)N[C@@H](COP(=O)(O)O)C(=O)N[C@@H](CCC(=O)O)C(=O)N[C@@H](COP(=O)(O)O)C(=O)N[C@H](C(=O)N[C@@H](CCC(=O)O)C(=O)N[C@@H](CC(=O)O)C(=O)N[C@@H](CCC(N)=O)C(=O)O)[C@@H](C)O [BC 06, Ile-Gly-pSer-Glu-pSer-Thr-Glu-Asp-Gln] (H-IG[pS]E[pS]TEDQ-OH; N-terminus and C-terminus assumed) | ~1.6 mM
CC(C)C(NC(=O)C(N)CS)C(=O)NC(CS)C(=O)O (stereo not drawn) [Cys-Val-Cys] (H-Cys-Val-Cys-OH; configuration not given here) | ~12.6 mM
N[C@@H](CCC(=O)O)C(=O)O [Glu, glutamic acid, reference compound] | ~5.9 mM
CC(C)C(NC(=O)C(N)CCC(=O)O)C(=O)NC(CC(=O)O)C(=O)O (stereo not drawn) [Glu-Val-Asp] | 3.32 ± 0.77 mM
CC(C)C(NC(=O)C(N)CCC(=O)O)C(=O)NC(CCC(=O)O)C(=O)O (stereo not drawn) [Glu-Val-Glu] (H-Glu-Val-Glu-OH; configuration not given here) | 3.54 ± 0.05 mM
NC(CO)C(=O)NC(CCC(=O)O)C(=O)NC(CO)C(=O)O (stereo not drawn) [Ser-Glu-Ser] (H-Ser-Glu-Ser-OH; configuration not given here) | 3.56 ± 0.11 mM
CC(C)C(NC(=O)C(N)COP(=O)(O)O)C(=O)NC(CCC(=O)O)C(=O)O (stereo not drawn) [pSer-Val-Glu] (H-[pS]-Val-Glu-OH; configuration not given here) | 3.04 ± 0.03 mM
NC(Cc1ccc(OP(=O)(O)O)cc1)C(=O)NC(CCC(=O)O)C(=O)NC(Cc1ccc(OP(=O)(O)O)cc1)C(=O)O (stereo not drawn) [pTyr-Glu-pTyr] (H-[pY]-Glu-[pY]-OH; configuration not given here) | 2.22 ± 0.22 mM
CC(C)[C@H](NC(=O)CC[C@H](N)C(=O)O)C(=O)NCC(=O)O [γ-Glu-Val-Gly, reference compound] | 5.78 ± 2.41 mM

Same assay, conditions: HEK T-Rex/natClytin-fCaSR cells, calcium-free Tyrode's buffer; ≈ values are model estimates without standard error; read-out: EC50 ± Std Error

EC50 | Molecule
~6.1 mM | N[C@@H](CC(=O)O)C(=O)O [Asp, aspartic acid, reference compound]
6.71 ± 0.57 mM | N[C@@H](CCC(=O)N[C@@H](CS)C(=O)NCC(=O)O)C(=O)O [GSH, reference compound]
6.72 ± 0.13 mM | [Cl-].[Cl-].[Mg+2] [MgC12, reference compound]
3.04 ± 0.21 mM | NC(COP(=O)(O)O)C(=O)NC(CCC(=O)O)C(=O)NC(COP(=O)(O)O)C(=O)O (stereo not drawn) [pSer-Glu-pSer] (H-[pS]-Glu-[pS]-OH; configuration not given here)
2.63 ± 0.04 mM | CC(C)C(NC(=O)C(N)COP(=O)(O)O)C(=O)NC(COP(=O)(O)O)C(=O)O (stereo not drawn) [pSer-Val-pSer] (H-[pS]-Val-[pS]-OH; configuration not given here)
1.98 ± 0.07 mM | CC(OP(=O)(O)O)C(N)C(=O)NC(CCC(=O)O)C(=O)NC(C(=O)O)C(C)OP(=O)(O)O (stereo not drawn) [pThr-Glu-pThr] (H-[pT]-Glu-[pT]-OH; configuration not given here)
~6.7 mM | CSCC[C@H](NC(=O)CC[C@H](N)C(=O)O)C(=O)O [γ-Glu-Met, reference compound]
~7.8 mM | N[C@@H](CCC(=O)N[C@@H](Cc1ccccc1)C(=O)O)C(=O)O [γ-Glu-Phe, reference compound]
~6.9 mM | N[C@@H](CCC(=O)N[C@@H](Cc1ccc(O)cc1)C(=O)O)C(=O)O [γ-Glu-Tyr, reference compound]
~3.9 mM | CC(C)[C@H](NC(=O)CC[C@H](N)C(=O)O)C(=O)O [γ-Glu-Val, reference compound]

Molecule | EC50
[Ca+2].[Cl-].[Cl-] [CaC12, CaCl2, reference compound] | 1.6 ± 0.06 mM

Target: feline calcium-sensing receptor (CaSR) (feline (cat))
Assay: cell-based or functional assay
Settings: not given

f-CaSR activity (EC50) | Molecule
2 mM | DIG[pS]E[pS]TEDQA
3.16 mM | EIVPN[pS]AEE
2 mM | IG[pS]E[pS]TEDQ
2 mM | IG[pS]E[pS]TEDQA

Target: T1, feline calcium-sensing receptor (CaSR)
Assay: cell-based or functional assay
Settings: not given

f-CaSR activity (EC50) | Molecule
6.32 mM | B1

— patent US20220256889A1, “PEPTIDES THAT MODULATE CALCIUM-SENSING RECEPTOR ACTIVITY FOR MODULATING KOKUMI TASTE AND PET FOOD PRODUCTS CONTAINING THE SAME” (MARS, INCORPORATED, priority 2019, published 2022)
